# Entries after “also recorded” stand apart in the source; their conditions may differ. Where two headings read alike, the source gives them in different places.
# Experiments:
# [1] = test system: bivalent GAT and GR79 transgenic herbicide-resistant corn; format: in vivo; settings: high dose on the pesticide registration tag, four to six leaves, surveyed 1, 2, 4 weeks after application
# From the text: (§1) transgenic corn to non-target herbicide 3 types of herbicides were set in this test, i.e., mesotrione· propisochlor atrazine SC (3.5% mesotrione, 15% propisochlor, and 15% atrazine) commonly used in corn field, glufosinate-ammonium (20% active ingredient) sensitive to corn, and haloxyfop-R-methyl (10.8% active ingredient), respectively. 4 treatments were set: (1) free of spraying herbicide; (2) spraying mesotrione· propisochlor atrazine SC; (3) spraying glufosinate-ammonium; and (4) spraying haloxyfop-R-methyl. The spraying dose is a high dose on the pesticide registration tag. Stems and leaves were sprayed when corn grew to four to six leaves. Seedling rate and symptom of pesticide damage were surveyed 1, 2, and 4 weeks later after application, respectively.
# [2] = test system: non-transgenic control corn; format: in vivo; settings: high dose on the pesticide registration tag, four to six leaves, surveyed 1, 2, 4 weeks after application
# From the text: as §1
# transgenic cotton = settings: T1 generation, solution diluted to 1/200 (0.205 g/100 ml), 450 L/hectare; cited from earlier work
# transgenic corn GG2 = assay: Field glyphosate tolerance of the transgenic corn event GG2; format: in vivo, Zea mays; settings: for plant height 1 week BC4 / plant height 1 week BC5: 1 week after application; for plant height 2 weeks BC4 / plant height 2 weeks BC5: 2 weeks after application; for plant height 4 weeks BC4 / plant height 4 weeks BC5: 4 weeks after application
# Experimental: Field herbicide tolerance of transgenic corn was tested in accordance with the Test for Environmental Safety of Transgenic Plant and its Products Part 1 of Herbicide-Resistant Corn: herbicide Tolerance (No. 953 bulletin-11.1-2007 of the Ministry of Agriculture and Rural Affairs).
# The test material was the transgenic corn GG2, and the corresponding non-transgenic corn. The herbicide was glyphosate. […] An isolation belt (a width of 1.0 m) was set among the blocks. Treatments include: transgenic corn not sprayed with a herbicide, transgenic corn sprayed with a target herbicide (glyphosate), non-transgenic corn not sprayed with a herbicide, and non-transgenic corn sprayed with a target herbicide (glyphosate). The application amount of the herbicide was 1-fold, 2 times, and 4 times the medium dose (active ingredient: 900 g/hectare) on the pesticide registration tag, respectively. The herbicide was applied at the four to five-leaf stage of corn. The rate of survival, plant height, and symptom of pesticide damage were surveyed and recorded 1, 2, and 4 weeks later after application, respectively. The symptom of pesticide damage was graded according to GB/T 19780.42. Glyphosate in the transgenic corn GG2, and in its corresponding transgenic control, and non-transgenic control was identified.
# transgenic maize = settings: AM79 single-gene transgenic maize; cited from earlier work
# [3] = test system: bivalent GAT and GR79 transgenic corn; assay: Screening of high glyphosate-resistant events of bivalent GAT and GR79 transgenic corn; format: in vivo, Zea mays; settings: for transformation events free of symptom of pesticide damage: 4 weeks after application
# Experimental: 2 times the medium dose of glyphosate (active ingredient: 1800 g/hectare) was continuously applied, and survey was conducted 4 weeks later after application, 63 transformation events were free of symptom of pesticide damage. The T2 generation of materials of the screened 63 transformation events were sown and sprayed with glyphosate at the four to five-leaf stage in a spraying amount of 1-fold, 2 times, and 4 times the medium dose (active ingredient: 900 g/hectare) on the pesticide registration tag. The rate of survival and symptom of pesticide damage of each transformation event were surveyed and recorded 4 weeks later after application. 47 transformation events were free of symptom of pesticide damage after sprayed with 4 times the medium dose of glyphosate and thus, were high glyphosate-resistant materials, accounting for 61.84% of the 76 positive transgenic materials. The screening concentration continued to be increased; when it was up to 8 times (active ingredient: 7200 g/hectare) the medium dose, 6 transformation events were not affected.
# [4] = test system: monovalent GAT transgenic corn; assay: Screening of high glyphosate-resistant events of monovalent GAT transgenic corn; format: in vivo, Zea mays
# From the text: To determine the effect of the combined use of double genes on high glyphosate tolerance, the transgenic corn transformed with the single gene GAT was subjected to glyphosate tolerance test according to the same screening process, 8 transformation events which could be resistant to 4 times glyphosate were obtained finally, accounting for 21.05% of the 38 positive transgenic materials. By comparison of the two, the bivalent GAT and GR79 transgenic glyphosate-resistant corn was easier to obtain high glyphosate-resistant materials.
# [5] = GG2 BC4, 1-fold the medium dose
# [6] = GG2 BC4, 2 times the medium dose
# [7] = GG2 BC4, 4 times the medium dose
# [8] = GG2 BC5, 1-fold the medium dose
# [9] = GG2 BC5, 2 times the medium dose
# [10] = GG2 BC5, 4 times the medium dose
# [11] = 8 times the medium dose (active ingredient: 7200 g/hectare)
smiles,measurement,setting,value
CP(=O)(O)CCC(N)C(=O)O (centres unmarked) [glufosinate-ammonium],seedling rate and symptom of pesticide damage,[1],died
same,seedling rate and symptom of pesticide damage,[1]; listed as Glufosinate-ammonium,sensitive
same,seedling rate and symptom of pesticide damage,[2],died
COC(=O)[C@@H](C)Oc1ccc(Oc2ncc(C(F)(F)F)cc2Cl)cc1 [haloxyfop-R-methyl],seedling rate and symptom of pesticide damage,[2],died
CC(C)N.O=C(O)CNCP(=O)(O)O [glyphosate isopropylamine],survival rate,transgenic cotton,more than 84%
O=C(O)CNCP(=O)(O)O [glyphosate],plant height versus transgenic corn not sprayed,"transgenic corn GG2; GG2, 1-fold, 2 and 4 times the medium dose",no significant difference
same,symptom of damage,"transgenic corn GG2; GG2, 1-fold, 2 and 4 times the medium dose, each stage, two consecutive generations",free of symptom of damage
same,plant height 1 week BC4,"transgenic corn GG2; GG2 BC4, 1-fold the medium dose (900 g active ingredient/hectare)",58.52 cm
same,plant height 2 weeks BC4,transgenic corn GG2; [5],85.59 cm
same,plant height 4 weeks BC4,transgenic corn GG2; [5],158.39 cm
same,plant height 1 week BC4,transgenic corn GG2; [6],51.24 cm
same,plant height 2 weeks BC4,transgenic corn GG2; [6],79.38 cm
same,plant height 4 weeks BC4,transgenic corn GG2; [6],147.75 cm
same,plant height 1 week BC4,transgenic corn GG2; [7],59.81 cm
same,plant height 2 weeks BC4,transgenic corn GG2; [7],88.41 cm
same,plant height 4 weeks BC4,transgenic corn GG2; [7],158.53 cm
same,plant height 1 week BC5,transgenic corn GG2; [8],33.87 cm
same,plant height 2 weeks BC5,transgenic corn GG2; [8],51.71 cm
same,plant height 4 weeks BC5,transgenic corn GG2; [8],136.37 cm
same,plant height 1 week BC5,transgenic corn GG2; [9],33.11 cm
same,plant height 2 weeks BC5,transgenic corn GG2; [9],54.29 cm
same,plant height 4 weeks BC5,transgenic corn GG2; [9],139.65 cm
same,plant height 1 week BC5,transgenic corn GG2; [10],34.65 cm
same,plant height 2 weeks BC5,transgenic corn GG2; [10],53.78 cm
same,plant height 4 weeks BC5,transgenic corn GG2; [10],137.39 cm
same,glyphosate dose GG2 is resistant to,transgenic corn GG2; medium dose 900 g active ingredient/hectare,4 times the medium dose
same,tolerated dose (active ingredient),transgenic maize,3600 g/hectare
same,high glyphosate-resistant materials as share of the 76 positive transgenic materials,[3]; 4 times the medium dose,61.84%
same,transformation events not affected,[3]; [11],6
same,harm by glyphosate during multi-generation screening,[3]; GG2 transformation event,not endangered by glyphosate
same,transformation events free of symptom of pesticide damage,"[3]; T1, 2 times the medium dose (active ingredient: 1800 g/hectare)",63
same,survival transformation events,"[3]; T1 generation of 76 double-positive events, four-leaf stage, medium dose (active ingredient: 900 g/hectare)",72
same,rate of zero symptom of pesticide damage,"[3]; T1 generation of 76 double-positive events, medium dose (active ingredient: 900 g/hectare)",94.7%
same,transformation events free of symptom of pesticide damage,"[3]; T2 of 63 events, 4 times the medium dose",47
same,resistant events as share of the 38 positive transgenic materials,[4]; 4 times glyphosate,21.05%
same,plant survival,[4]; [11],no survival plant
same,transformation events resistant to 4 times glyphosate,"[4]; of 38 positive single-gene GAT materials, 4 times the medium dose",8
same,leaf symptoms of pesticide damage,"[4]; partial high-resistant GAT events, a few days after 4 times the medium dose",mild symptoms of herbicide damage; also recorded: mild symptoms of pesticide damage

# From US20240209388A1, “EXPRESSION VECTOR OF GLYPHOSATE-RESISTANT GENES GR79 AND GAT, HIGH GLYPHOSATE-RESISTANT CORN, AND DETECTION METHOD THEREFOR” (BIOTECHNOLOGY RESEARCH INSTITUTE, CHINESE ACADEMY OF …, priority 2021, published 2024)
